Laboratory results published in patent publication US20050148505A1, “Genes and agents to regulate follicular development, ovulation cycle and steriodogenesis” (priority 2003, published 2005).

Experiments:
[1] = tested on: CTBP mRNA; test: CTBP mRNA expression in primary granulosa cell culture by semi-quantitative RT-PCR; type: cell-based, rat; conditions: 6 h; for CTBP mRNA level, inhibitor alone in the absence of FSH: CHX 10 μg/ml or α-amanitin 30 μg/ml, compared to control
Experimental: FIG. 3. CTBP mRNA expression in primary granulosa cell culture. Granulosa cells were isolated from the ovaries of 24 day old immature rat primed with 17β-estradiol. The cells were cultured in the presence of 30 ng/ml FSH for up to 48 h, and RNA was extracted and amplified for CTBP using quantitative RT-PCR. In addition, L-19 mRNA was probed as an internal control. The CTBP values were normalized with the corresponding values of L-19 and two independent experimental values were averaged.
FIG. 5. Effects of cycloheximide and α-amanitin treatment on the FSH/forskolin-induced expression of CTBP mRNA. Granulosa cells were isolated from 17β-estradiol primed 24-day old immature rat ovaries and cultured with FSH (30 ng/ml) or forskolin (10 μM, FSK) in the presence or absence of cycloheximide (10 μg/ml, CHX) or α-amanitin (30 μg/ml, AMA) for the 6 h. CHX, a translation inhibitor, and AMA, a transcription inhibitor, were pretreated to the cell cultures one hour before hormone treatment. Total RNA was isolated and analyzed for CTBP and L-19 mRNA by semi-quantitative RT-PCR assay using 23 cycles for CTBP and 20 cycles for L-19. L-19 was used as an internal control. Values shown are the range of two independent experiments along with the mean, indicated by bars.
For granulosa cell culture, immature rats were daily injected sub cutaneously with 1.5 mg of 17β-estradiol at 21, 22 and 23 days of age. […] After cells were washed three times in 4F, they were plated on serum-coated, 6-well plates at a density of ˜1×10^6 cells per […] and incubated in the humidified atmosphere of 5% CO2 at 37 C. After 16 h, FSH (30 ng/ml) or forskolin (10 μM) was added to the cultures. For the inhibition of protein synthesis or transcription, cycloheximide (10 μg/ml) or α-amanitin (30 μg/ml) was added, respectively, 1 h before hormone treatment.
RT-PCR was performed as previously described (Ko et al. 1999 Endocrinology 140:5185-519411). Total RNA (1-2 μg) was reverse-transcribed at 37° C. in 20 μl using random hexamer (500 ng) and MMLV reverse transcriptase (10 units) (New England BioLabs, Boston, Mass.). Complementary DNA (cDNA) in 2 μl was added for a total 25 μl reaction mixture containing the primers (200 ng each), 0.4 mM dNTP mixture, and Taq DNA polymerase (2.5 U) in 1×PCR buffer (10 mM Tris, pH 8.3, 50 mM KCl, 1.5 mM MgCl2, 0.01% gelatin). All PCR amplifications were carried out for 20, 25, 30 cycles on a MJ research Minicycler (MJ Research, MA). PCR products were separated by 2% agarose gel electrophoresis, stained with SYBR® Green I (Molecular Probes), and visualized on a phosphoimager. The primers were 5′-ctg act ggc gag aac tgg atg-3′SEQ ID NO. 1) and 5′-aca gta tgc agg ctt cgc tcc-3′ (SEQ ID NO. 2) for 160 bp CTBP, 5′-gct ttc cct ctg ttg acc cac-3′(SEQ ID NO. 3) and 5′-aga tgt tga ggg cag ctc gat-3′(SEQ ID NO. 4) for 255 bp inhibin α, 5′-ctg aag gtc aaa ggg aat gtg-3′ (SEQ ID NO. 5) and 5′-gga cag agt ctt gat gat ctc-3′ (SEQ ID NO. 6) for 194 bp L-19 as an internal control.

[2] = tested on: granulosa cells; test: Estrogen production by granulosa cells, assayed in culture media; type: cell-based; conditions: for FSH-induced estrogen production: FSH pre-treated granulosa cells
Experimental: FIG. 7. Effects of T3 hormone on estrogen production. (A) Granulosa cells were treated with increasing concentrations of FSH and the culture media were assayed for estrogen production. (B) Granulosa cells that were pre-treated with FSH were treated with T3 for varying time periods, 0-4 days. The culture media were assayed for estrogen. (C) Granulosa cells were treated with none, thyroid hormone T3, FSH, or FSH and T3 combo for 3 or 5 days. The culture media were assayed for estrogen production. […] The culture media were assayed for estrogen production.

Structure (SMILES)	CTBP mRNA level, inhibitor alone in the absence of FSH [1]	CTBP mRNA expression, co-treatment with FSH ([1]; α-amanitin 30 μg/ml plus FSH 30 ng/ml)	FSH-induced estrogen synthesis ([2]; FSH and T3 combo for 3 or 5 days)	FSH-induced estrogen production ([2]; T3 by day 4)	FSH-induced estrogen production ([2]; T3 within 24 h)	hCG-dependent estrogen production ([2]; hCG and T3 combo for 3 or 5 days)	FSH-dependent decrease in CTBP mRNA in the presence of inhibitor ([1]; CHX 10 μg/ml added 1 h before FSH 30 ng/ml, compared with absence of CHX)	forskolin-induced reduction of CTBP mRNA level in the presence of inhibitor ([1]; cycloheximide 10 μg/ml plus forskolin 10 μM)
CC[C@H](C)[C@@H]1NC(=O)CNC(=O)[C@@H]2Cc3c([nH]c4cc(O)ccc34)[S+]([O-])C[C@@H](NC(=O)CNC1=O)C(=O)N[C@@H](CC(N)=O)C(=O)N1C[C@H](O)C[C@H]1C(=O)N[C@@H]([C@@H](C)[C@@H](O)CO)C(=O)N2 (stereo in doubt) [α-amanitin]	did not significantly impact the expression level	completely abolished	–	–	–	–	–	–
N[C@@H](Cc1cc(I)c(Oc2ccc(O)c(I)c2)c(I)c1)C(=O)O [T3]	–	–	suppresses	completely blocked	suppressed	stimulates	–	–
C[C@@H]1C[C@@H]([C@H](O)CC2CC(=O)NC(=O)C2)C(=O)[C@@H](C)C1 [cycloheximide]	increased the CTBP mRNA level	–	–	–	–	–	significantly less	partially prevented
